Reference: paper PMC4176481, “Influence of D-glutamine and D-glutamic acid sequences in optical peptide probes targeted against the cholecystokinin-2/gastrin-receptor on binding affinity, specificity and pharmacokinetic properties” (EJNMMI Research, 2013)
Several values for one entry are separate records, joined by “and”; a condition that tells them apart may be missing. Equal entries are not always repeated. Entries after “also recorded” stand apart in the source; their conditions may differ. Starred links: 1 amine or outer side, 2 acyl side, 3 side chain; linkers in the order of their positions; H or OH if unused. Positions of bridges follow the written chain, without caps; N, C: chain ends. Non-standard residues stand in square brackets, D forms with d. Residues, ends and D or L forms follow the SMILES beside them. Chains are numbered I, II in the order given. *: point of attachment. X1 = CC(C)(C)c1cc(C=CC=CC=C2N(CCCS(=O)(=O)O)c3ccc(S(=O)(=O)O)cc3C2(C)CCCC(=O)*)c2cc3c(cc2[o+]1)N(CCCS(=O)(=O)O)C(C)(C)C=C3CS(=O)(=O)[O-]; Nle = CCCC[C@H](N)C(=O)O; X2 = O=C(C[*:1])[*:2]

Columns and labels:
[1] = test system: A431/CCK2R cells; assay: Target binding and internalization in vitro, fluorescence microscopy; type: cell-based, human; settings: 0.5 μM, 30 min; for binding and internalization in A431/CCK2R cells at 37°C: n = 3
Method: (§1) Binding of the optical probes QE and bivQ to CCK2R-expressing (A431/CCK2R) and CCK2R-non-expressing (A431/WT) cells was investigated after incubation with 0.5 μM of each probe in culture medium for 30 min at 4°C to observe active surface receptor binding and at 37°C to check for internalization behaviour, which is mandatory for in vivo signal amplification. Incubation with 0.5 μM of the fluorochrome DY-754 should determine the role of the interaction of the peptide with the CCK2R for probe uptake. Probe incubation was followed by cell membrane staining with wheat germ agglutinin-Alexa Fluor®-555 (WGA-555, Invitrogen, Carlsbad, CA, USA), fixation in 4% (v/v) paraformaldehyde on ice and mounting in PermaFluor® Mounting medium (Thermo Fisher, Waltham, MA, USA), containing 0.2 μg/mL Hoechst 33258 (Applichem, Darmstadt, Germany) to stain cell nuclei. Fluorescence microscopy was carried out with the digital microscope EVOSfl (AMG, Bothell, WA, USA) equipped with three filter cubes for visualization of Hoechst (excitation 335 to 379 nm, emission 417 to 477 nm), WGA-555 (excitation 511 to 551 nm, emission 573 to 613 nm) and DY-754 (excitation 690 to 730 nm, emission 752 to 798 nm).

[2] = test system: A431/WT cells; assay: Target binding in vitro, fluorescence microscopy, CCK2R-non-expressing cells; type: cell-based, human; settings: 0.5 μM, 30 min
Method: as §1

[3] = test system: A431/CCK2R tumours; assay: In vivo NIRF imaging of CCK2R-expressing xenografts; design: species or system athymic nude mice; settings: for TBR, A431/CCK2R xenografts, under competition / tumour/background ratio (TBR), A431/CCK2R xenografts: 8 h p.i., mean ± SD, n = 5; for TBR, A431/CCK2R xenografts, under competition: co-injection of 10-fold molar excess of non-fluorescent minigastrin; for tumour/background ratio (TBR), A431/CCK2R xenografts: i.v. 108 nmol/kg QE or 54 nmol/kg bivQ; for TBR, CCK2R-expressing xenografts (summary bound): high-contrast imaging, discussion summary
Text: Female athymic nude mice (Hsd:Athymic Nude-Foxn1^nu nu/nu; Harlan Laboratories, Eystrup, Germany) were housed under standard conditions with water and food ad libitum. Mice were maintained under a low-pheophorbide diet (C 1039; Altromin, Lage, Germany) to reduce tissue autofluorescence. All procedures were approved by the regional animal committee (reg. number 02-007/10) and were in accordance with international guidelines on the ethical use of animals. Animals were anesthetized with 2% isoflurane during all procedures. To implement subcutaneous xenografts, 5 × 10^5 CCK2R transfected (A431/CCK2R) and non-transfected wild-type cells (A431/WT) were dispensed in Matrigel™ (BD Biosciences, Heidelberg, Germany) and injected into the right (A431/CCK2R cells) and left (A431/WT cells) flank of 8- to 12-week-old animals 10 to 15 days before in vivo imaging.
Xenografts were inoculated in athymic nude mice (Hsd:Athymic Nude-Foxn1^nu nu/nu; Harlan Laboratories) 10 to 15 days before imaging by subcutaneous injection of 0.5 million A431/CCK2R […] and A431/WT cells (right flank) dispersed in Matrigel™ (BD Biosciences). For in vivo fluorescence imaging, 108 nmol/kg QE or 54 nmol/kg bivQ probe was injected intravenously (i.v.), according to the results of a dose determination experiment, which was set up to identify the optimal relation between sensitivity and contrast (Additional file 1). […] Another group received 108 nmol/kg of the unconjugated fluorophore DY-754 to determine dye-mediated non-specific tumour uptake, and one group remained untreated to control for probe-unrelated NIR fluorescence in the animals. At defined time points between 0 and 8 h p.i., NIRF fluorescence images (excitation 615 to 665 nm, emission >750 nm) and white light images of the animals were obtained. By means of spectral unmixing, tissue autofluorescence was removed from the images. Subsequently, fluorescence intensities (FI) were analysed over the time in regions of interest (ROIs) that were placed upon the tumours and non-tumour tissue. As a measure of contrast between tumour and non-tumour fluorescence, tumour/background ratios (TBRs) were calculated as a quotient of FItumour/FInon-tumour.

[4] = test system: A431/WT tumours; assay: In vivo NIRF imaging of CCK2R-negative xenografts; design: species or system athymic nude mice; settings: 1 to 8 h p.i.; i.v. 108 nmol/kg QE or 54 nmol/kg bivQ; n = 5
Text: Female athymic nude mice (Hsd:Athymic Nude-Foxn1^nu nu/nu; Harlan Laboratories, Eystrup, Germany) were housed under standard conditions with water and food ad libitum. Mice were maintained under a low-pheophorbide diet (C 1039; Altromin, Lage, Germany) to reduce tissue autofluorescence. All procedures were approved by the regional animal committee (reg. number 02-007/10) and were in accordance with international guidelines on the ethical use of animals. Animals were anesthetized with 2% isoflurane during all procedures. […]
Xenografts were inoculated in athymic nude mice (Hsd:Athymic Nude-Foxn1^nu nu/nu; Harlan Laboratories) 10 to 15 days before imaging by subcutaneous injection of 0.5 million A431/CCK2R (left flank) and A431/WT cells (right flank) dispersed in Matrigel™ (BD Biosciences). For in vivo fluorescence imaging, 108 nmol/kg QE or 54 nmol/kg bivQ probe was injected intravenously (i.v.), according to the results of a dose determination experiment, which was set up to identify the optimal relation between sensitivity and contrast (Additional file 1). […] Another group received 108 nmol/kg of the unconjugated fluorophore DY-754 to determine dye-mediated non-specific tumour uptake, and one group remained untreated to control for probe-unrelated NIR fluorescence in the animals. […]

[5] = Biodistribution, ex vivo NIRF of organs and xenografts 8 h p.i.; type: in vivo, athymic nude mice; settings: for uptake into A431/WT tumours (biodistribution): n = 5, comparably high for DY-754 (p > 0.05)
Method: We investigated the biodistribution of the optical probes and of the fluorochrome DY-754 to determine the influence of the dye on tumour and organ accumulation. Therefore, 8 h p.i., ex vivo NIRF fluorescence images of the organs and the two xenografts (A431/CCK2R and A431/WT) per mouse were taken in combination with the placement of ROIs on these organs to assess semiquantitative fluorescence intensities.

[6] = test system: A431/CCK2R and A431/WT tumours; assay: Ex vivo intratumoural probe distribution in cryosections (Odyssey scanner); design: species or system athymic nude mice; settings: acetone-fixed 30-μm cryosections of explanted xenografts, three specimens/group
Text: To determine intratumoural distribution of the peptide probes ex vivo, acetone-fixed 30-μm cryosections of explanted xenografts were scanned mesoscopically in the near-infrared scanner Odyssey® (LI-COR, Bad Homburg, Germany) at 700 nm (autofluorescence) and 800 nm (probe fluorescence).

[7] = Metabolic (protease) stability in mouse liver homogenates; type: in vitro ADME; settings: mouse liver homogenate, incubation up to 180 min, HPLC with UV/VIS detection at 750 nm, three parallels
Method: Supplementary file 2191-219X-3-75-S3.pptx: Additional file 3: Metabolic (protease) stability of QE and bivQ against the degradation by mouse liver homogenates. The HPLC peak of non-degraded QE at 9.7 min elution time (a-I) decreased after 180 min of probe incubation in liver homogenate, whereas a second peak, representing degradation products, appeared at 7.2 min of elution (a-II). Degradation curves of (b) QE and (c) bivQ. […] Peaks were detected at 750 nm with a UV/VIS detector. Data represent three parallels. Click here for file
Supplementary file 2191-219X-3-75-S4.pptx: Additional file 4: Metabolic stability of the optical CCK2R targeted minigastrin dQ-MG-754 [[20]]. Degradation of dQ-MG-754 for comparison with QE and bivQ. […] Probe signal was detected at 750 nm with a UV/VIS detector. Data represent three parallels. Click here for file

| SMILES | probe localisation in A431/CCK2R cells at 4°C [1] | binding and internalization in A431/CCK2R cells at 37°C [1] | binding to A431/WT cells (no CCK2R expression) [2] | TBR, A431/CCK2R xenografts, under competition [3] | tumour/background ratio (TBR), A431/CCK2R xenografts [3] | TBR, CCK2R-expressing xenografts (summary bound) [3] | TBR, A431/WT tumours [4] | fluorescence accumulation in stomach, small intestine and colon ([5]; n = 5) | uptake in the liver compared to free DY-754 ([5]; n = 5) | uptake into A431/WT tumours (biodistribution) [5] | intratumoural fluorescence at 800 nm in tumour sections [6] | metabolic stability against degradation by liver proteases [7] |
| --- | --- | --- | --- | --- | --- | --- | --- | --- | --- | --- | --- | --- |
| CSCC[C@H](NC(=O)[C@H](Cc1c[nH]c2ccccc12)NC(=O)CNC(=O)[C@H](Cc1ccc(O)cc1)NC(=O)[C@H](C)NC(=O)[C@@H](CCC(=O)O)NC(=O)[C@@H](CCC(N)=O)NC(=O)[C@@H](CCC(=O)O)NC(=O)[C@@H](CCC(N)=O)NC(=O)[C@@H](CCC(=O)O)NC(=O)[C@@H](CCC(N)=O)NC(=O)CCCC1(C)C(=CC=CC=Cc2cc(C(C)(C)C)[o+]c3cc4c(cc23)C(CS(=O)(=O)[O-])=CC(C)(C)N4CCCS(=O)(=O)O)N(CCCS(=O)(=O)O)c2ccc(S(=O)(=O)O)cc21)C(=O)N[C@@H](CC(=O)O)C(=O)N[C@@H](Cc1ccccc1)C(N)=O (some centres unmarked) [QE] (X1-[dQ][dE][dQ][dE][dQ][dE]AYGWMDF-NH2) | restricted to the cell membrane | binding and internalization | no binding | 4.4 ± 0.9 | 6.2 ± 1.0 | > 6 | ~2 and < 2 | no fluorescence accumulation | weakly elevated uptake | weak uptake | only in the outer A431/CCK2R tumour regions | more stable than bivQ; also recorded: highly stable |
| CCCC[C@H](NC(=O)[C@H](Cc1c[nH]c2ccccc12)NC(=O)CNC(=O)[C@H](Cc1ccc(O)cc1)NC(=O)[C@H](C)NC(=O)[C@@H](CCC(N)=O)NC(=O)[C@@H](CCC(N)=O)NC(=O)[C@@H](CCC(N)=O)NC(=O)CSC[C@H](NC(=O)CCCC1(C)C(=CC=CC=Cc2cc(C(C)(C)C)[o+]c3cc4c(cc23)C(CS(=O)(=O)[O-])=CC(C)(C)N4CCCS(=O)(=O)O)N(CCCS(=O)(=O)O)c2ccc(S(=O)(=O)O)cc21)C(=O)N[C@H](CCC(N)=O)C(=O)N[C@H](CCC(N)=O)C(=O)N[C@H](CCC(N)=O)C(=O)N[C@@H](C)C(=O)N[C@@H](Cc1ccc(O)cc1)C(=O)NCC(=O)N[C@@H](Cc1c[nH]c2ccccc12)C(=O)N[C@@H](CCCC)C(=O)N[C@@H](CC(=O)O)C(=O)N[C@@H](Cc1ccccc1)C(N)=O)C(=O)N[C@@H](CC(=O)O)C(=O)N[C@@H](Cc1ccccc1)C(N)=O (some centres unmarked) [bivQ] (I: X1-C[dQ][dQ][dQ]AYGW[Nle]DF-NH2 / II: [dQ][dQ][dQ]AYGW[Nle]DF-NH2; linker I:1-II:N via X2) | restricted to the cell membrane | binding and internalization | no binding | 4.0 ± 1.2 | 6.3 ± 1.4 | > 6 | < 2 | no fluorescence accumulation |  | weak uptake | only in the outer A431/CCK2R tumour regions | only a limited metabolic stability |
